Legend:
[1] = rat, 120 mg/kg dose; cited from earlier work
[2] = Chemical characteristics of Composition A′, concentrated and diluted forms; format: physicochemical
Experimental: Several tests were conducted to determine the chemical characteristics of composition Composition A′, both in concentrated and diluted forms. […] All liquid nanodomain droplets range in size from 5 to 20 nm. The pH of both the concentrate and diluted formulations is between 6.0 and 7.5.

[3] = healthy volunteers and subjects with various medical conditions, 10 mg to 6000 mg, single and multiple doses; cited from earlier work
[4] = molecular target: CB2 receptors (Homo sapiens, UniProt P34972); details: cited from earlier work
CB2 receptors, sequence (P34972 whole entry): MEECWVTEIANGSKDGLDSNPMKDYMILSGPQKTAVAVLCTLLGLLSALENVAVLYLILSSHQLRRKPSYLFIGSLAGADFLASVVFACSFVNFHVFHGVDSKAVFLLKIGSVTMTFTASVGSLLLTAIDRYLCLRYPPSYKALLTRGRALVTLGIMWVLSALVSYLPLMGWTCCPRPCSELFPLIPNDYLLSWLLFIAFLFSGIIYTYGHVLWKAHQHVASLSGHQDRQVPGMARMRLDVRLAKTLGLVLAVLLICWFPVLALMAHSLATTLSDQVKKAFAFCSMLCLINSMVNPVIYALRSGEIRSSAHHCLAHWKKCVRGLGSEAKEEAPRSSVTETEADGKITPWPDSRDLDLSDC

C=C(C)[C@@H]1CCC(C)=C[C@H]1c1c(O)cc(CCCCC)cc1O [CBD, 2-(1R,6R)-3-methyl-6-prop-1-en-2-ylcyclohex-2-en-1-yl-5-pentylbenzene-1,3-diol]
T1/2 [1]: 4 to 5 h | Log P [2]: about 6 | Association of CBD with formulation phases during storage ([2]; both concentrated and diluted forms): remained associated with the surfactant and lipid phases | Safety [3]: safe | Affinity for CB2 receptors [4]: low affinity
